Reference: patent US3984548A, “Substituted pyrido[1,2,3,-de]-1,4-benzoxazines as bactericides” (Riker Laboratories, Inc., priority 1974, dated 1976)

Tests used:
Assay type in all cases: cell-based
Design in all cases: key: +: active; -: inactive
Details in all cases: agar plates, 1 to 100 milligrams/liter
Streptococcus Sp = test: standard plate dilution method, Streptococcus sp.
Protocol: (§1) The culture medium employed permits susceptibility testing of fastidious microorganisms towards antibiotics, sulfonamides and other chemotherapeutic agents. Tryptone soy agar (oxoid) of the following composition is the culture medium. In the test procedure, the amount of a compound required to give complete inhibition or no inhibition of the microbial growth on the agar plates was determined. The compound selected for evaluation is added to the agar medium to give concentrations of one, ten and one hundred milligrams per liter. A series of plates with these concentrations is prepared. Plates containing agar alone are included as controls. Ten percent horse serum is added to one series of such plates. Aliquots of broth culture of each of nine species of microorganisms are innoculated onto the agar plates containing the various compound concentrations and onto the control plates. The plates are incubated at 37° C. in a 10 percent carbon dioxide atmosphere for 18 to 25 hours. The microbial growth on each plate is read visually, and minimal inhibitory concentrations are recorded.

Mima polymorpha = test: standard plate dilution method, Mima polymorpha
Protocol: as §1

Pseudmonas aeruginosa = test: standard plate dilution method, Pseudomonas aeruginosa
Protocol: as §1

Staphylococcus aureus = test: standard plate dilution method, Staphylococcus aureus
Protocol: as §1

Bacillus Subtilus = test: standard plate dilution method, Bacillus subtilus
Protocol: as §1

Herellea vaginicola = test: standard plate dilution method, Herellea vaginicola
Protocol: as §1

Escherichia coli = test: standard plate dilution method, Escherichia coli
Protocol: as §1

Compound	Microorganism SS (growth inhibition) (Streptococcus Sp)	Microorganism MP (growth inhibition) (Mima polymorpha)	Microorganism PA (growth inhibition) (Pseudmonas aeruginosa)	Microorganism SA (growth inhibition) (Staphylococcus aureus)	Microorganism BS (growth inhibition) (Bacillus Subtilus)	Microorganism HV (growth inhibition) (Herellea vaginicola)	Microorganism EC (growth inhibition) (Escherichia coli)
CCOC(=O)c1cn2c3c(cc(C)cc3c1=O)OCC2C (stereo not shown) [Example 1, ethyl 2,3-dihydro-3,9-dimethyl-7-oxo-7H-pyrido[1,2,3-de]-1,4-benzoxazine-6-carboxylate]	-	-	-	+	+	+	+
CCOC(=O)c1cn2c3c(cc(Cl)cc3c1=O)OCC2C (stereo not shown) [Example 4, ethyl 9-chloro-2,3-dihydro-3-methyl-7-oxo-7H-pyrido[1,2,3-de]-1,4-benzoxazine-6-carboxylate]	-	-	-	+	+	+	+
CCOC(=O)c1cn2c3c(ccc(F)c3c1=O)OCC2C (stereo not shown) [Example 5, ethyl 2,3-dihydro-8-fluoro-3-methyl-7-oxo-7H-pyrido[1,2,3-de]-1,4-benzoxazine-6-carboxylate]	-	-	-	-	+	+	+
CCOC(=O)c1cn2c3c(cc(F)cc3c1=O)OCC2C (stereo not shown) [Example 6, ethyl 2,3-dihydro-9-fluoro-3-methyl-7-oxo-7H-pyrido[1,2,3-de]-1,4-benzoxazine-6-carboxylate]	-	-	+	+	+	+	+
Cc1cc2c3c(c1)c(=O)c(C(=O)O)cn3C(C)CO2 (stereo not shown) [Example 16, 2,3-dihydro-3,9-dimethyl-7-oxo-7H-pyrido[1,2,3-de]-1,4-benzoxazine-6-carboxylic acid]	+	-	-	+	+	+	+
CC1COc2ccc(Cl)c3c(=O)c(C(=O)O)cn1c23 (stereo not shown) [Example 17, 8-chloro-2,3-dihydro-3-methyl-7-oxo-7H-pyrido[1,2,3-de]-1,4-benzoxazine-6-carboxylic acid]	+	-	-	-	+	+	+
O=C(O)c1cn2c3c(cccc3c1=O)OCC2 [Example 18, 2,3-dihydro-7-oxo-7H-pyrido[1,2,3-de]-1,4-benzoxazine-6-carboxylic acid]	-	-	-	-	+	-	-
CC1COc2cccc3c(=O)c(C(=O)O)cn1c23 (stereo not shown) [Example 19, 2,3-dihydro-3-methyl-7-oxo-7H-pyrido[1,2,3-de]-1,4-benzoxazine-6-carboxylic acid]	-	-	-	+	+	+	+
COc1cc2c3c(c1)c(=O)c(C(=O)O)cn3C(C)CO2 (stereo not shown) [Example 20, 2,3-dihydro-9-methoxy-3-methyl-7-oxo-7H-pyrido[1,2,3-de]-1,4-benzoxazine-6-carboxylic acid]	-	-	-	+	+	+	+
CC1COc2c(F)ccc3c(=O)c(C(=O)O)cn1c23 (stereo not shown) [Example 21, 2,3-dihydro-10-fluoro-3-methyl-7-oxo-7H-pyrido[1,2,3-de]-1,4-benzoxazine-6-carboxylic acid]	+	-	-	+	+	+	+
CC1COc2c(Cl)ccc3c(=O)c(C(=O)O)cn1c23 (stereo not shown) [Example 22, 10-chloro-2,3-dihydro-3-methyl-7-oxo-7H-pyrido[1,2,3-de]-1,4-benzoxazine-6-carboxylic acid]	+	+	+	+	+	+	+
CC1COc2cc(Cl)cc3c(=O)c(C(=O)O)cn1c23 (stereo not shown) [Example 23, 9-chloro-2,3-dihydro-3-methyl-7-oxo-7H-pyrido[1,2,3-de]-1,4-benzoxazine-6-carboxylic acid]	+	-	-	+	+	+	+
CC1COc2cc(F)cc3c(=O)c(C(=O)O)cn1c23 (stereo not shown) [Example 24, 9-fluoro-2,3-dihydro-3-methyl-7-oxo-7H-pyrido[1,2,3-de]-1,4-benzoxazine-6-carboxylic acid]	+	-	+	+	+	+	+
CC1COc2ccc(F)c3c(=O)c(C(=O)O)cn1c23 (stereo not shown) [Example 25, 8-fluoro-2,3-dihydro-3-methyl-7-oxo-7H-pyrido[1,2,3-de]-1,4-benzoxazine-6-carboxylic acid]	+	-	-	-	+	+	+
Cc1ccc2c3c1c(=O)c(C(=O)O)cn3C(C)CO2 (stereo not shown) [Example 26, 8-methyl-2,3-dihydro-3-methyl-7-oxo-7H-pyrido[1,2,3-de]-1,4-benzoxazine-6-carboxylic acid]	+	-	-	+	+	+	+
Cc1c(Cl)cc2c(=O)c(C(=O)O)cn3c2c1OCC3C (stereo not shown) [Example 34 (acid)]	+	+	+	+	+	+	+
